Source: publication PMC12207590, “Substrate Specificity of the Organic Cation Transporters MATE1 and MATE2K and Functional Overlap with OCT1 and OCT2” (Journal of Medicinal Chemistry, 2025)
Like-named read-outs stand apart in the source and are kept apart here.

Key:
MATE2K = MATE2K (Homo sapiens, UniProt Q86VL8); assay: Uptake ratio in MATE2K-overexpressing HEK293 cells vs empty vector (2.5 μM, 1 min, HPLC-MS/MS); assay type: cell-based; set-up: key to MATE2 substrate*: 1 = substrate; 0 = no substrate
MATE1 = biological target: T1, MATE1 (Homo sapiens, UniProt Q96FL8); assay: Uptake ratio in MATE1-overexpressing HEK293 cells vs empty vector (2.5 μM, 1 min, HPLC-MS/MS); assay type: cell-based; set-up: key to MATE1 substrate*: 1 = substrate; 0 = no substrate
T1 sequence (Q96FL8 1-570): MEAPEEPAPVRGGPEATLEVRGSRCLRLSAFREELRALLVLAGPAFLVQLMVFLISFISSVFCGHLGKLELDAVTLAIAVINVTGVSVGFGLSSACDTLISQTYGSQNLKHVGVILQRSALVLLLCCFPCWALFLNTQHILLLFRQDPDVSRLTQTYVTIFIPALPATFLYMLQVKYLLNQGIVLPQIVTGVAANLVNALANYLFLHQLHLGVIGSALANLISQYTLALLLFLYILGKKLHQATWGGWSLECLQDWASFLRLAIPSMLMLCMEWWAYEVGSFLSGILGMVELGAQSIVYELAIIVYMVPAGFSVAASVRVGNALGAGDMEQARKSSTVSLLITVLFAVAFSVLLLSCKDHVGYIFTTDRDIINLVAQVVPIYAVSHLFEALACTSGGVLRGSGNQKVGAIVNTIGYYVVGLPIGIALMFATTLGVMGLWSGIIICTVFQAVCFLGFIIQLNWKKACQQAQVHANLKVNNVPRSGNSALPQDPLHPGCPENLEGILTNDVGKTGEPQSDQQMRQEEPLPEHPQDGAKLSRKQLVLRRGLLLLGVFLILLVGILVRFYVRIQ

[1] = fold uptake over empty vector, 2.5 μM, 1 min
[2] = uptake ratio MATE2K-overexpressing vs empty-vector HEK293 cells, 2.5 μM, 1 min, mean
[3] = uptake ratio MATE1-overexpressing vs empty-vector HEK293 cells, 2.5 μM, 1 min, mean

Chain of MATE2K (Q86VL8 1-566 isoform Q86VL8-3): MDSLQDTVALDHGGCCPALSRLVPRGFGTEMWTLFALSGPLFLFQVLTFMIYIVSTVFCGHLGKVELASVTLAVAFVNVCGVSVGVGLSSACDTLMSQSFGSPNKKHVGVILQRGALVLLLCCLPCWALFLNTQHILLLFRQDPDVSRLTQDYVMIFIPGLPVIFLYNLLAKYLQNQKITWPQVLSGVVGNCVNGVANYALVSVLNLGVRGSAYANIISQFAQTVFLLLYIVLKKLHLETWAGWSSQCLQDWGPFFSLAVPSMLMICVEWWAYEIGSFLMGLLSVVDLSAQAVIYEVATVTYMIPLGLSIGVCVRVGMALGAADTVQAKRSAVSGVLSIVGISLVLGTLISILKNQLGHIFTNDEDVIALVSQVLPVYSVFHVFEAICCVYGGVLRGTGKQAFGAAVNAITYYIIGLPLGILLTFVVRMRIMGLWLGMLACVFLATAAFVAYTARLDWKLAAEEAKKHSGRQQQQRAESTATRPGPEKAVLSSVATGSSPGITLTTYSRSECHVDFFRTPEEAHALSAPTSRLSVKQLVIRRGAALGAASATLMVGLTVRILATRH

SMILES	MATE2K ratio (MATE2K; [1])	MATE2 (MATE2K; [2])	MATE1 ratio (MATE1; [1])	MATE1 (MATE1; [3])	further results
COC(=O)[C@H]1[C@H]2C[C@@H]3c4[nH]c5cc(OC)ccc5c4CCN3C[C@H]2C[C@@H](OC(=O)c2cc(OC)c(OC)c(OC)c2)[C@@H]1OC [Reserpine]	1.08	1.08	1.61	1.61	
CN(CCN1CCC(OC(=O)Nc2ccccc2-c2ccccc2)CC1)C(=O)c1ccc(CN2CCC(C(N)=O)CC2)cc1 [Revefenacin]	1.17	1.17	1.39	1.39	
CO[C@H]1/C=C/O[C@@]2(C)Oc3c(C)c(O)c4c(O)c(c(/C=N/N5CCN(C)CC5)c(O)c4c3C2=O)NC(=O)/C(C)=C\C=C\[C@H](C)[C@H](O)[C@@H](C)[C@@H](O)[C@@H](C)[C@H](OC(C)=O)[C@@H]1C [Rifampicin]	0.93	0.93	1.02	1.02	
CN(C)CCc1c[nH]c2ccc(Cn3cncn3)cc12 [Rizatriptan]	3.35	3.35	6.63	6.63	
CNCc1ccc(-c2[nH]c3cc(F)cc4c3c2CCNC4=O)cc1 [Rucaparib]	2.03	2.03	3.71	3.71	
N#CC[C@H](C1CCCC1)n1cc(-c2ncnc3[nH]ccc23)cn1 [Ruxolitinib]	0.99	0.99	1.13	1.13	
CC(C)(C)NCC(O)c1ccc(O)c(CO)c1 [Salbutamol (R), Salbutamol]	3.74	3.74	6.98	6.98	MATE2K ratio in this study (MATE2K; Table S1, 2.5 μM, 1 min): 3.74; MATE1 ratio in this study (MATE1; Table S1, 2.5 μM, 1 min): 6.98
CC(C)(C)NCC(O)c1ccc(O)c(CO)c1 [Salbutamol (S), Salbutamol]	5.09	5.09	8.88	8.88	MATE2K ratio in this study (MATE2K; Table S1, 2.5 μM, 1 min): 5.09; MATE1 ratio in this study (MATE1; Table S1, 2.5 μM, 1 min): 8.88
CC(C)(C)NCC(O)c1ccc(O)c(CO)c1 (stereo not drawn) [Salbutamol]	3.73	3.73	7.94	7.94	MATE2K ratio in this study (MATE2K; Table S1, 2.5 μM, 1 min): 3.73; MATE1 ratio in this study (MATE1; Table S1, 2.5 μM, 1 min): 7.94
OCc1cc(C(O)CNCCCCCCOCCCCc2ccccc2)ccc1O (stereo not drawn) [Salmeterol]	1.17	1.17	1.78	1.78	
COc1cc2c(cc1OC)[C@H](C)NCC2 [Salsolidine]					MATE2 (MATE2K): 1.46; MATE2K ratio (MATE2K): 1.46; MATE1 (MATE1): 1.24; MATE1 ratio (MATE1): 1.24
CNCC(=O)O [Sarcosine]	1.01	1.01	0.76	0.76	
CCN(CC)CCNC(=O)c1ccc(NS(C)(=O)=O)cc1 [Sematilide]	6.42	6.42	19.10	19.1	
NCCc1c[nH]c2ccc(O)cc12 [Serotonin]			12.11	12.11	MATE2 (MATE2K): 2.26; MATE2K ratio (MATE2K): 2.26
CN[C@H]1CC[C@@H](c2ccc(Cl)c(Cl)c2)c2ccccc21 [Sertraline]	1.10	1.1	1.28	1.28	
C1CCN2C[C@@H]3C[C@@H](CN4CCCC[C@@H]34)[C@H]2C1 [Sparteine (+), Sparteine]					MATE2 (MATE2K): 1.31; MATE2K ratio (MATE2K): 1.31; MATE1 (MATE1): 1.62; MATE1 ratio (MATE1): 1.62
C1CCN2C[C@H]3C[C@H](CN4CCCC[C@@H]34)[C@H]2C1 [Sparteine (-), Sparteine]					MATE2 (MATE2K): 1.66; MATE2K ratio (MATE2K): 1.66; MATE2K ratio in this study (MATE2K): 1.66; MATE1 (MATE1): 2.12; MATE1 ratio (MATE1): 2.12; MATE1 ratio in this study (MATE1): 2.12
NCCCCNCCCN [Spermidine]	0.55	0.55	0.63	0.63	
NCCCNCCCCNCCCN [Spermine]	1.25	1.25	1.13	1.13	
C[N+]1(C)CCC[C@H]1C(=O)[O-] [Stachydrine]	1.31	1.31	0.83	0.83	
C[N+](C)(C)C[C@@H](CC(=O)[O-])OC(=O)CCC(=O)O [Succinylcarnitine]	1.38	1.38	0.54	0.54	
CNCC(O)c1ccc(O)cc1.CNCC(O)c1ccc(O)cc1.O=C(O)C(O)C(O)C(=O)O (stereo not drawn) [Synephrine]					MATE2 (MATE2K): 1.04; MATE1 (MATE1): 6.5
Cn1nnc2c(C(N)=O)ncn2c1=O [Temozolomide]		1.1		1.03	
CC(C)(C)NCC(O)c1cc(O)cc(O)c1 (stereo not drawn) [Terbutaline]		7.04		6.74	
CC(C)(C)c1ccc(C(O)CCCN2CCC(C(O)(c3ccccc3)c3ccccc3)CC2)cc1 (stereo not drawn) [Terfenadine]		0.93		1.07	

SMILES	MATE2K ratio (MATE2K; [1])	MATE2 (MATE2K; [2])	MATE1 ratio (MATE1; [1])	MATE1 (MATE1; [3])	further results
CCCCNc1ccc(C(=O)OCCN(C)C)cc1 [Tetracaine]		1.3		1.12	
CC[N+](CC)(CC)CC [Tetraethyl ammonium (TEA), Tetraethyl ammonium]					MATE2K ratio in this study (MATE2K): 6.73; MATE1 ratio in this study (MATE1): 25.44
CC[N+](CC)(CC)CC [Tetraethylammonium]					MATE2 (MATE2K): 6.73; MATE1 (MATE1): 25.44
O=C1CCC(N2C(=O)c3ccccc3C2=O)C(=O)N1 (stereo not drawn) [Thalidomide]		2.02		0.85	
Cc1ncc(C[n+]2csc(CCOP(=O)(O)O)c2C)c(N)n1 [Thiamine monophosphate]		0.89		1.05	
C/C=C(\C)C(=O)OC(CC(=O)[O-])C[N+](C)(C)C (stereo not drawn) [Tiglylcarnitine]		0.76		0.96	
C[C@@H]1CCN(C(=O)CC#N)C[C@@H]1N(C)c1ncnc2[nH]ccc12 [Tofacitinib]		1.41		1.36	MATE2K ratio in this study (MATE2K; Table S1, 2.5 μM, 1 min): 1.41; MATE1 ratio in this study (MATE1; Table S1, 2.5 μM, 1 min): 1.36
COc1cccc(C2(O)CCCCC2CN(C)C)c1 (stereo not drawn) [Tramadol]					MATE2 (MATE2K): 1.44; MATE1 (MATE1): 1.13
CC(CN(C)C)CN1c2ccccc2CCc2ccccc21 (stereo not drawn) [Trimipramine]		1.2		1.19	
CN1[C@@H]2CC[C@H]1C[C@@H](OC(=O)c1c[nH]c3ccccc13)C2 [Tropisetron]		1.15		1.22	
N[C@@H](Cc1c[nH]c2ccccc12)C(=O)O [Tryptophan]					MATE2 (MATE2K): 1.07; MATE1 (MATE1): 0.82
CC(C)(C)NCC(O)c1ccccc1Cl (stereo not drawn) [Tulobuterol]		1.74		1.31	
OC(c1ccccc1)(c1ccccc1)C12CC[N+](CCOCc3ccccc3)(CC1)CC2 [Umeclidinium]		1.67		4.54	
CC[C@@H]1CN(C(=O)NCC(F)(F)F)C[C@@H]1c1cnc2cnc3[nH]ccc3n12 [Upadacitinib]		1.27		1.51	
COc1ccccc1N1CCN(CCCNc2cc(=O)n(C)c(=O)n2C)CC1 [Urapidil]		1.17		1.19	
c1cnc2cc3c(cc2n1)[C@@H]1CNC[C@H]3C1 [Varenicline]		1.3		1.2	MATE2K ratio in this study (MATE2K; Table S1, 2.5 μM, 1 min): 1.30; MATE1 ratio in this study (MATE1; Table S1, 2.5 μM, 1 min): 1.20
CC(=O)O[C@H]1C[C@@H]2CC[C@@H]3[C@H](CC[C@@]4(C)[C@H]3C[C@H]([N+]3(C)CCCCC3)[C@@H]4OC(C)=O)[C@@]2(C)C[C@@H]1N1CCCCC1 [Vecuronium]					MATE2 (MATE2K): 4.72; MATE1 (MATE1): 8.32
COc1ccc([C@H](CN(C)C)C2(O)CCCCC2)cc1 [Venlafaxine (R)]					MATE2 (MATE2K): 1.36; MATE1 (MATE1): 1.14
COc1ccc([C@@H](CN(C)C)C2(O)CCCCC2)cc1 [Venlafaxine (S)]					MATE2 (MATE2K): 1.44; MATE1 (MATE1): 1.22
COc1ccc(C(CN(C)C)C2(O)CCCCC2)cc1 (stereo not drawn) [Venlafaxine]					MATE2 (MATE2K): 1.3; MATE1 (MATE1): 1.22
C=CCN1CCCC1CNC(=O)c1cc(S(N)(=O)=O)cc(OC)c1OC (stereo not drawn) [Veralipride]		4.21		6.39	
CCOc1ccccc1OCC1CNCCO1 (stereo not drawn) [Viloxazine]					MATE2 (MATE2K): 1.38; MATE1 (MATE1): 1.12
O=C(NCCNCC(O)COc1ccc(O)cc1)N1CCOCC1 (stereo not drawn) [Xamoterol]		6.13		7.62	
COC(=O)[C@@H]1[C@H]2C[C@H]3c4[nH]c5ccccc5c4CCN3C[C@@H]2CC[C@@H]1O [Yohimbin]		1.35		1.11	
O=c1ncccn1[C@@H]1O[C@H](CO)[C@@H](O)[C@H]1O [Zebularine]		0.9		1.12	MATE2 substrate* (MATE2K; Table S4): 0; MATE1 substrate* (MATE1; Table S4): 0
